Results reported in patent US9149038B2, “4-amino-6-(heterocyclic)picolinates and 6-amino-2-(heterocyclic)pyrimidine-4-carboxylates and their use as herbicides” (Dow AgroSciences LLC, priority 2013, dated 2015).
Like-named read-outs stand apart in the source and are kept apart here.

What was measured:
[1] = test system: Key Broadleaf Weed and Crop Species; experiment: Post-Emergent Test II: postemergent herbicidal activity, visual rating after 14 d (Table 7); format: in vivo; conditions: post-emergence, 336 h; for pest or weed control at 35 g/ha: 35 g ai/ha; for pest or weed control at 70 g/ha: 70 g ai/ha; for pest or weed control at 140 g/ha: 140 g ai/ha
How it was run: (§1)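 Greenhouse plants at first or second true leaf stage sprayed with compound in acetone/DMSO-based spray solution with crop oil concentrate and Triton X-155 at 187 L/ha, tested at highest rate and ½× to 1/16× dilutions; solvent blank controls. Injury rated visually 0–100% versus untreated plants after 14 d.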

[2] = test system: Key Grass and Sedge Weeds as well as Grass Crops; experiment: Post-Emergent Test II: postemergent herbicidal activity, visual rating after 14 d (Table 8); format: in vivo; conditions: post-emergence, 336 h; for pest or weed control at 35 g/ha: 35 g ai/ha; for pest or weed control at 70 g/ha: 70 g ai/ha; for pest or weed control at 140 g/ha: 140 g ai/ha
How it was run: as §1

[3] = lambsquarters (Chenopodium album), read-out: Visual Growth Reduction (%) 14 Days After Application CHEAL
[4] = oilseed rape, canola (Brassica napus), read-out: Visual Growth Reduction (%) 14 Days After Application BRSNN
[5] = redroot pigweed (Amaranthus retroflexus), read-out: Visual Growth Reduction (%) 14 Days After Application AMARE
[6] = sunflower (Helianthus annuus), read-out: Visual Growth Reduction (%) 14 Days After Application HELAN
[7] = velvetleaf (Abutilon theophrasti), read-out: Visual Growth Reduction (%) 14 Days After Application ABUTH
[8] = wild poinsettia (Euphorbia heterophylla), read-out: Visual Growth Reduction (%) 14 Days After Application EPHHL
[9] = barnyardgrass (Echinochloa crus-galli), read-out: Visual Growth Reduction (%) 14 Days After Application ECHCG
[10] = giant foxtail (Setaria faberi), read-out: Visual Growth Reduction (%) 14 Days After Application SETFA
[11] = maize, corn (Zea mays), read-out: Visual Growth Reduction (%) 14 Days After Application ZEAMX
[12] = rice (Oryza sativa), read-out: Visual Growth Reduction (%) 14 Days After Application ORYSA
[13] = wheat, spring (Triticum aestivum), read-out: Visual Growth Reduction (%) 14 Days After Application TRZAS
[14] = yellow nutsedge (Cyperus esculentus), read-out: Visual Growth Reduction (%) 14 Days After Application CYPES

Structure (SMILES) | pest or weed control at 35 g/ha [1, 3] [%] | pest or weed control at 70 g/ha [1, 3] [%] | pest or weed control at 140 g/ha [1, 3] [%] | pest or weed control at 35 g/ha [1, 4] [%] | pest or weed control at 70 g/ha [1, 4] [%] | pest or weed control at 140 g/ha [1, 4] [%] | pest or weed control at 35 g/ha [1, 5] [%] | pest or weed control at 70 g/ha [1, 5] [%] | pest or weed control at 140 g/ha [1, 5] [%] | pest or weed control at 35 g/ha [1, 6] [%] | pest or weed control at 70 g/ha [1, 6] [%] | pest or weed control at 140 g/ha [1, 6] [%] | pest or weed control at 35 g/ha [1, 7] [%] | pest or weed control at 70 g/ha [1, 7] [%] | pest or weed control at 140 g/ha [1, 7] [%] | pest or weed control at 35 g/ha [1, 8] [%] | pest or weed control at 70 g/ha [1, 8] [%] | pest or weed control at 140 g/ha [1, 8] [%] | pest or weed control at 35 g/ha [2, 9] [%] | pest or weed control at 70 g/ha [2, 9] [%] | other results
COC(=O)c1nc(-c2cc3c(cc2F)OC(F)(F)O3)nc(N)c1OC [Compound 64] | 0 to 29 | 0 to 29 | 0 to 29 | 0 to 29 | 0 to 29 | 0 to 29 | 0 to 29 | 0 to 29 | 0 to 29 | 0 to 29 | 60 to 74 | 75 to 84 | 0 to 29 | 0 to 29 | 0 to 29 | 75 to 84 | 85 to 94 | 95 to 100 | 0 to 29 | 45 to 59 | pest or weed control at 140 g/ha [2, 9]: 75 to 84%; pest or weed control at 35 g/ha [2, 10]: 0 to 29%; pest or weed control at 70 g/ha [2, 10]: 45 to 59%; pest or weed control at 140 g/ha [2, 10]: 75 to 84%; pest or weed control at 35 g/ha [2, 11]: 30 to 44%; pest or weed control at 70 g/ha [2, 11]: 45 to 59%; pest or weed control at 140 g/ha [2, 11]: 75 to 84%; pest or weed control at 35 g/ha [2, 12]: 0 to 29%; pest or weed control at 70 g/ha [2, 12]: 0 to 29%; pest or weed control at 140 g/ha [2, 12]: 0 to 29%; pest or weed control at 35 g/ha [2, 13]: 0 to 29%; pest or weed control at 70 g/ha [2, 13]: 30 to 44%; pest or weed control at 140 g/ha [2, 13]: 30 to 44%; pest or weed control at 35 g/ha [2, 14]: 30 to 44%; pest or weed control at 70 g/ha [2, 14]: 60 to 74%; pest or weed control at 140 g/ha [2, 14]: 85 to 94%
COC(=O)c1nc(-c2ccc3c(c2OC)OC(F)(F)O3)cc(N)c1Cl [Compound 47] | 30 to 44 | 30 to 44 | 45 to 59 | 60 to 74 | 60 to 74 | 60 to 74 | 0 to 29 | 75 to 84 | 85 to 94 | 30 to 44 | 30 to 44 | 45 to 59 | 0 to 29 | 30 to 44 | 60 to 74 | 0 to 29 | 0 to 29 | 0 to 29 | 0 to 29 | 0 to 29 | pest or weed control at 140 g/ha [2, 9]: 0 to 29%; pest or weed control at 35 g/ha [2, 10]: 0 to 29%; pest or weed control at 70 g/ha [2, 10]: 0 to 29%; pest or weed control at 140 g/ha [2, 10]: 0 to 29%; pest or weed control at 35 g/ha [2, 11]: 0 to 29%; pest or weed control at 70 g/ha [2, 11]: 0 to 29%; pest or weed control at 140 g/ha [2, 11]: 0 to 29%; pest or weed control at 35 g/ha [2, 12]: 0 to 29%; pest or weed control at 70 g/ha [2, 12]: 0 to 29%; pest or weed control at 140 g/ha [2, 12]: 0 to 29%; pest or weed control at 35 g/ha [2, 13]: 0 to 29%; pest or weed control at 70 g/ha [2, 13]: 0 to 29%; pest or weed control at 140 g/ha [2, 13]: 0 to 29%; pest or weed control at 35 g/ha [2, 14]: 0 to 29%; pest or weed control at 70 g/ha [2, 14]: 0 to 29%; pest or weed control at 140 g/ha [2, 14]: 0 to 29%
COC(=O)c1nc(-c2ccc3c(c2F)OC(F)(F)O3)cc(N)c1Cl [Compound 37, Methyl 4-amino-3-chloro-6-(2,2,4-trifluorobenzo-[d][1,3]dioxol-5-yl)picolinate] | 95 to 100 | 95 to 100 | 95 to 100 | 85 to 94 | 95 to 100 | 95 to 100 | 85 to 94 | 95 to 100 | 95 to 100 | 0 to 29 | 30 to 44 | 75 to 84 | 95 to 100 | 95 to 100 | 95 to 100 | 95 to 100 | 95 to 100 | 95 to 100 | 95 to 100 | 95 to 100 | pest or weed control at 140 g/ha [2, 9]: 95 to 100%; pest or weed control at 35 g/ha [2, 10]: 60 to 74%; pest or weed control at 70 g/ha [2, 10]: 95 to 100%; pest or weed control at 140 g/ha [2, 10]: 95 to 100%; pest or weed control at 35 g/ha [2, 11]: 60 to 74%; pest or weed control at 70 g/ha [2, 11]: 75 to 84%; pest or weed control at 140 g/ha [2, 11]: 85 to 94%; pest or weed control at 35 g/ha [2, 12]: 0 to 29%; pest or weed control at 70 g/ha [2, 12]: 0 to 29%; pest or weed control at 140 g/ha [2, 12]: 0 to 29%; pest or weed control at 35 g/ha [2, 13]: 0 to 29%; pest or weed control at 70 g/ha [2, 13]: 0 to 29%; pest or weed control at 140 g/ha [2, 13]: 0 to 29%; pest or weed control at 35 g/ha [2, 14]: 95 to 100%; pest or weed control at 70 g/ha [2, 14]: 95 to 100%; pest or weed control at 140 g/ha [2, 14]: 95 to 100%
